Measured values reported in patent US6914045B2, “Glycopeptide antibiotics” (Wyeth Holdings Corporation, priority 2001, dated 2005).
In brackets after ≈: the same amount, converted by molar mass. Values belong to the compound of their own block, whether it stands above or below them.

Columns and labels:
Assay in all cases: in vitro antibacterial evaluation, MIC by broth dilution
Format in all cases: cell-based
[1] = tested on: Escherichia coli; settings: 18 hours at 35° C.
In short: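 Broth dilution in Muller-Hinton II medium per NCCLS standard M7-A2, with an inoculum of 5×10^5 CFU/mL and antibiotic tested over 64-0.06 μg/mL. MIC was taken as the lowest concentration inhibiting visible growth.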

[2] = tested on: Staphylococcus sp.; settings: broth dilution, 18 hours at 35° C.; for MIC Staphylococcus aureus (ATCC 29213): strain ATCC 29213; for MIC Staphylococcus aureus (GC 1131): strain GC 1131; for MIC Staphylococcus aureus (GC 3051): strain GC 3051; for MIC Staphylococcus aureus (GC 3053): strain GC 3053; for MIC Staphylococcus aureus (GC 4541): strain GC 4541; for MIC Staphylococcus aureus (GC 4542): strain GC 4542; for MIC Staphylococcus aureus-SMITH (GC 4543): strain GC 4543; for MIC Staphylococcus aureus (GC 4544): strain GC 4544; for MIC Staphylococcus aureus (GC 4545): strain GC 4545; for MIC Staphylococcus haemolyticus (GC 4546): strain GC 4546; for MIC Coagulase Negative Staphylococcus (GC 4547): strain GC 4547; for MIC Coagulase Negative Staphylococcus (GC 4548): strain GC 4548; for MIC Coagulase Negative Staphylococcus (GC 4549): strain GC 4549; for MIC Coagulase Negative Staphylococcus (GC 4551): strain GC 4551
In short: (§1)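 Broth dilution per NCCLS standard M7-A2 in Muller-Hinton II […], with an inoculum of 5×10^5 CFU/mL and antibiotic spanning 64-0.06 μg/mL. The MIC is the lowest concentration that inhibits growth of the organism.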

[3] = tested on: Enterococcus sp.
In short: as §1

[4] = tested on: Streptococcus sp.
In short: as §1

[5] = broth dilution, 18 hours at 35° C.

- MIC Escherichia coli (ATCC 25922) ([1]; strain ATCC 25922, broth dilution): >128 µg/mL
- MIC Escherichia coli (GC 4559) ([1]; strain GC 4559, broth dilution): >128 µg/mL
- MIC Escherichia coli (GC 4560) ([1]; strain GC 4560, broth dilution): 16 µg/mL (≈ 13.4 µM)
- MIC Staphylococcus aureus (ATCC 29213) [2]: 8 µg/mL (≈ 6.7 µM)
- MIC Staphylococcus aureus (GC 1131) [2]: 8 µg/mL (≈ 6.7 µM)
- MIC Staphylococcus aureus (GC 3051) [2]: 8 µg/mL (≈ 6.7 µM)
- MIC Staphylococcus aureus (GC 3053) [2]: 8 µg/mL (≈ 6.7 µM)
- MIC Staphylococcus aureus (GC 4541) [2]: 8 µg/mL (≈ 6.7 µM)
- MIC Staphylococcus aureus (GC 4542) [2]: 8 µg/mL (≈ 6.7 µM)
- MIC Staphylococcus aureus-SMITH (GC 4543) [2]: 8 µg/mL (≈ 6.7 µM)
- MIC Staphylococcus aureus (GC 4544) [2]: 8 µg/mL (≈ 6.7 µM)
- MIC Staphylococcus aureus (GC 4545) [2]: 8 µg/mL (≈ 6.7 µM)
- MIC Coagulase Negative Staphylococcus (GC 4547) [2]: 8 µg/mL (≈ 6.7 µM)
- MIC Coagulase Negative Staphylococcus (GC 4548) [2]: 8 µg/mL (≈ 6.7 µM)
- MIC Coagulase Negative Staphylococcus (GC 4549) [2]: 8 µg/mL (≈ 6.7 µM)
- MIC Coagulase Negative Staphylococcus (GC 4551) [2]: 8 µg/mL (≈ 6.7 µM)
- MIC Coagulase Negative Staphylococcus (GC 6257) ([2]; strain GC 6257): 2 µg/mL (≈ 1.67 µM)
- MIC Enterococcus faecalis (ATCC 29212) ([3]; strain ATCC 29212; broth dilution, 18 hours at 35° C.): 16 µg/mL (≈ 13.4 µM)
- MIC Enterococcus faecalis (GC 2242) ([3]; strain GC 2242; broth dilution, 18 hours at 35° C.): 16 µg/mL (≈ 13.4 µM)
- MIC Enterococcus faecium (GC 2243) ([3]; strain GC 2243; broth dilution, 18 hours at 35° C.): 8 µg/mL (≈ 6.7 µM)
- MIC Enterococcus faecalis (GC 2691) ([3]; strain GC 2691; broth dilution, 18 hours at 35° C.): 16 µg/mL (≈ 13.4 µM)
- MIC Enterococcus faecalis (GC 3059) ([3]; strain GC 3059; broth dilution, 18 hours at 35° C.): 32 µg/mL (≈ 26.8 µM)
- MIC Enterococcus faecalis (GC 4552) ([3]; strain GC 4552; broth dilution, 18 hours at 35° C.): 32 µg/mL (≈ 26.8 µM)
- MIC Enterococcus faecalis (GC 4553) ([3]; strain GC 4553; broth dilution, 18 hours at 35° C.): 8 µg/mL (≈ 6.7 µM)
- MIC Enterococcus faecalis (GC 4554) ([3]; strain GC 4554; broth dilution, 18 hours at 35° C.): 32 µg/mL (≈ 26.8 µM)
- MIC Enterococcus faecium (GC 4556) ([3]; strain GC 4556; broth dilution, 18 hours at 35° C.): 32 µg/mL (≈ 26.8 µM)
- MIC Enterococcus faecium (GC 4557) ([3]; strain GC 4557; broth dilution, 18 hours at 35° C.): 4 µg/mL (≈ 3.35 µM)
- MIC Enterococcus avium (GC 4558) ([3]; strain GC 4558; broth dilution, 18 hours at 35° C.): 8 µg/mL (≈ 6.7 µM)
- MIC Enterococcus faecalis (GC 6189) ([3]; strain GC 6189; broth dilution, 18 hours at 35° C.): 16 µg/mL (≈ 13.4 µM)
- MIC Streptococcus pneumoniae (ATCC 6301) ([4]; strain ATCC 6301; broth dilution, 18 hours at 35° C.): 8 µg/mL (≈ 6.7 µM)
- MIC Streptococcus pneumoniae (GC 1894) ([4]; strain GC 1894; broth dilution, 18 hours at 35° C.): 8 µg/mL (≈ 6.7 µM)
- MIC Streptococcus pyogenes (GC 4563) ([4]; strain GC 4563; broth dilution, 18 hours at 35° C.): 2 µg/mL (≈ 1.67 µM)
- MIC Streptococcus agalactiae (GC 4564) ([4]; strain GC 4564; broth dilution, 18 hours at 35° C.): 8 µg/mL (≈ 6.7 µM)
- MIC Streptococcus pneumoniae (GC 4565) ([4]; strain GC 4565; broth dilution, 18 hours at 35° C.): 16 µg/mL (≈ 13.4 µM)
SMILES: COc1ccc(Oc2cccc(-c3nc4cc(CC5NC(=O)C(C(C)c6ccccc6)NC(=O)CNC(=O)C(CO)NC(=O)C(C(O)C6CNC(=N)N6C6OC(CO)C(O)C(O)C6O)NC(=O)C(C(O)C6CNC(=N)N6)NC5=O)ccc4o3)c2)cc1 (stereo not drawn) [Example 35, Cyclo[3-[2-[3-(4-methoxyphenoxy)phenyl]-1,3-benzoxazol-5-yl]alanyl-3-(2-iminoimidazolidin-4-yl)seryl-3-(3-hexopyranosyl-2-iminoimidazolidin-4-yl)serylserylglycyl-β-methylphenyl-alanyl]]
- MIC Staphylococcus haemolyticus (GC 4546) [2]: 8 µg/mL (≈ 6.7 µM)

- MIC Escherichia coli (ATCC 25922) [1]: >128 µg/mL
- MIC Escherichia coli (GC 4559) [1]: >128 µg/mL
- MIC Escherichia coli (GC 4560) [1]: 4 µg/mL (≈ 2.56 µM)
- MIC Staphylococcus aureus (ATCC 29213) [2]: 8 µg/mL (≈ 5.12 µM)
- MIC Staphylococcus aureus (GC 1131) [2]: 16 µg/mL (≈ 10.2 µM)
- MIC Staphylococcus aureus (GC 3051) [2]: 8 µg/mL (≈ 5.12 µM)
- MIC Staphylococcus aureus (GC 3053) [2]: 16 µg/mL (≈ 10.2 µM)
- MIC Staphylococcus aureus (GC 4541) [2]: 8 µg/mL (≈ 5.12 µM)
- MIC Staphylococcus aureus (GC 4542) [2]: 16 µg/mL (≈ 10.2 µM)
- MIC Staphylococcus aureus-SMITH (GC 4543) [2]: 8 µg/mL (≈ 5.12 µM)
- MIC Staphylococcus aureus (GC 4544) [2]: 16 µg/mL (≈ 10.2 µM)
- MIC Staphylococcus aureus (GC 4545) [2]: 8 µg/mL (≈ 5.12 µM)
- MIC Coagulase Negative Staphylococcus (GC 4547) [2]: 4 µg/mL (≈ 2.56 µM)
- MIC Coagulase Negative Staphylococcus (GC 4548) [2]: 4 µg/mL (≈ 2.56 µM)
- MIC Coagulase Negative Staphylococcus (GC 4549) [2]: 4 µg/mL (≈ 2.56 µM)
- MIC Coagulase Negative Staphylococcus (GC 4551) [2]: 8 µg/mL (≈ 5.12 µM)
- MIC Enterococcus avium (GC 4558) ([3]; Enterococcus avium (GC 4558); broth dilution, 18 hours at 35° C.): 4 µg/mL (≈ 2.56 µM)
- MIC Enterococcus faecalis (ATCC 29212) ([3]; Enterococcus faecalis (ATCC 29212); broth dilution, 18 hours at 35° C.): 16 µg/mL (≈ 10.2 µM)
- MIC Enterococcus faecalis (GC 4552) ([3]; Enterococcus faecalis (GC 4552); broth dilution, 18 hours at 35° C.): 16 µg/mL (≈ 10.2 µM)
- MIC Enterococcus faecalis (GC 4553) ([3]; Enterococcus faecalis (GC 4553); broth dilution, 18 hours at 35° C.): 8 µg/mL (≈ 5.12 µM)
- MIC Enterococcus faecalis (GC 4554) ([3]; Enterococcus faecalis (GC 4554); broth dilution, 18 hours at 35° C.): 32 µg/mL (≈ 20.5 µM)
- MIC Enterococcus faecalis (GC 6189) ([3]; Enterococcus faecalis (GC 6189); broth dilution, 18 hours at 35° C.): 16 µg/mL (≈ 10.2 µM)
- MIC Enterococcus faecium (GC 2243) ([3]; Enterococcus faecium (GC 2243); broth dilution, 18 hours at 35° C.): 8 µg/mL (≈ 5.12 µM)
- MIC Enterococcus faecium (GC 4556) ([3]; Enterococcus faecium (GC 4556); broth dilution, 18 hours at 35° C.): 16 µg/mL (≈ 10.2 µM)
- MIC Enterococcus faecium (GC 4557) ([3]; Enterococcus faecium (GC 4557); broth dilution, 18 hours at 35° C.): 2 µg/mL (≈ 1.28 µM)
- MIC Enterococcus avium (GC 4558) [3, 5]: 4 µg/mL (≈ 2.56 µM)
- MIC Enterococcus faecalis (ATCC 29212) [3, 5]: 16 µg/mL (≈ 10.2 µM)
- MIC Enterococcus faecalis (GC 2242) [3, 5]: 16 µg/mL (≈ 10.2 µM)
- MIC Enterococcus faecalis (GC 2691) [3, 5]: 16 µg/mL (≈ 10.2 µM)
- MIC Enterococcus faecalis (GC 3059) [3, 5]: 16 µg/mL (≈ 10.2 µM)
- MIC Enterococcus faecalis (GC 4552) [3, 5]: 16 µg/mL (≈ 10.2 µM)
- MIC Enterococcus faecalis (GC 4553) [3, 5]: 8 µg/mL (≈ 5.12 µM)
- MIC Enterococcus faecalis (GC 4554) [3, 5]: 32 µg/mL (≈ 20.5 µM)
- MIC Enterococcus faecalis (GC 6189) [3, 5]: 16 µg/mL (≈ 10.2 µM)
- MIC Enterococcus faecium (GC 2243) [3, 5]: 8 µg/mL (≈ 5.12 µM)
- MIC Enterococcus faecium (GC 4556) [3, 5]: 16 µg/mL (≈ 10.2 µM)
- MIC Enterococcus faecium (GC 4557) [3, 5]: 2 µg/mL (≈ 1.28 µM)
- MIC Enterococcus faecalis (GC 2242) ([3]; broth dilution, 18 hours at 35° C.; strain GC 2242): 16 µg/mL (≈ 10.2 µM)
- MIC Enterococcus faecalis (GC 2691) ([3]; broth dilution, 18 hours at 35° C.; strain GC 2691): 16 µg/mL (≈ 10.2 µM)
- MIC Enterococcus faecalis (GC 3059) ([3]; broth dilution, 18 hours at 35° C.; strain GC 3059): 16 µg/mL (≈ 10.2 µM)
- MIC Streptococcus agalactiae (GC 4564) [4, 5]: 0.5 µg/mL (≈ 0.32 µM)
- MIC Streptococcus pneumoniae (ATCC 6301) [4, 5]: 2 µg/mL (≈ 1.28 µM)
- MIC Streptococcus pneumoniae (GC 1894) [4, 5]: 0.25 µg/mL (≈ 0.16 µM)
- MIC Streptococcus pneumoniae (GC 4565) [4, 5]: 2 µg/mL (≈ 1.28 µM)
- MIC Streptococcus pyogenes (GC 4563) [4, 5]: 1 µg/mL (≈ 0.64 µM)
- MIC Streptococcus pneumoniae (ATCC 6301) ([4]; broth dilution, 18 hours at 35° C.; strain ATCC 6301): 2 µg/mL (≈ 1.28 µM)
- MIC Streptococcus pneumoniae (GC 1894) ([4]; broth dilution, 18 hours at 35° C.; strain GC 1894): 0.25 µg/mL (≈ 0.16 µM)
- MIC Streptococcus pyogenes (GC 4563) ([4]; broth dilution, 18 hours at 35° C.; strain GC 4563): 1 µg/mL (≈ 0.64 µM)
- MIC Streptococcus agalactiae (GC 4564) ([4]; broth dilution, 18 hours at 35° C.; strain GC 4564): 0.5 µg/mL (≈ 0.32 µM)
- MIC Streptococcus pneumoniae (GC 4565) ([4]; broth dilution, 18 hours at 35° C.; strain GC 4565): 2 µg/mL (≈ 1.28 µM)
SMILES: CC(C)=CCCC(C)=CCN=C1NCC(C(O)C2NC(=O)C(C(O)C3CNC(=N)N3)NC(=O)C(Cc3ccc(OC4OC(CO)C(OC5OC6COC7(OC6C(O)C5O)C5CC6CC(C5)CC7C6)C(O)C4O)cc3)NC(=O)C(C(C)c3ccccc3)NC(=O)CNC(=O)C(CO)NC2=O)N1C1OC(CO)C(O)C(O)C1O (centres unmarked) [Example 82]
- MIC Staphylococcus haemolyticus (GC 4546) [2]: 4 µg/mL (≈ 2.56 µM)
